Biological target: T1, BTK protein (Homo sapiens, UniProt Q06187)
T1 construct: endogenous in cells; host or cells: TMD-8 cells
Test: Measurement of BTK protein degradation ability in TMD-8 cells (Western blotting)
Type: cell-based
Details: harvested after 24 hours; for BTK degradation (%) 1 nM: compound 1 nM; for BTK degradation (%) 10 nM: compound 10 nM; for BTK degradation (%) 100 nM: compound 100 nM
Method in brief: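 TMD-8 cells (1×10^6/mL) were treated for 24 h with compound at 0.1, 1, 10 μM or 0.0001–0.1 μM, with DMSO as vehicle control. RIPA lysates were normalized by BCA assay. BTK was detected by Western blot with anti-BTK, using GAPDH or β-actin as loading controls, and imaged on LI-COR Odyssey.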

T1 sequence (Q06187 whole entry): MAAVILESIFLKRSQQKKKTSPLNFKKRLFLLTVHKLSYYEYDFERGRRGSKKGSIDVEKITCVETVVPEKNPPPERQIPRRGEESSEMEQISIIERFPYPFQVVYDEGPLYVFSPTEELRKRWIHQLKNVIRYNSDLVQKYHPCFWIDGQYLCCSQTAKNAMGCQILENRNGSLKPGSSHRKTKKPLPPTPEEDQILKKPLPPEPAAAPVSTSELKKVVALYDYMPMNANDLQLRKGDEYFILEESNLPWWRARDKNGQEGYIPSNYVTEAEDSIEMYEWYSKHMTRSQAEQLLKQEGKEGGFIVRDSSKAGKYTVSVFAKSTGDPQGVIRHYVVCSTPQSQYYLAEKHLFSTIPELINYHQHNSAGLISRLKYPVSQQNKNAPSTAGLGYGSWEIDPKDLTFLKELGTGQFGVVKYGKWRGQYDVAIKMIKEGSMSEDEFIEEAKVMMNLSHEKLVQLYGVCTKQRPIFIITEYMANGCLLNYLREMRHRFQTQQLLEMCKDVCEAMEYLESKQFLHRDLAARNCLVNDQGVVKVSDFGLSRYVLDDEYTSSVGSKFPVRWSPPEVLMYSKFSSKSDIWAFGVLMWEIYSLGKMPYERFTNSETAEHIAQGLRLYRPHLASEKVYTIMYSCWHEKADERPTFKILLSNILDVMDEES

SMILES | BTK degradation (%) 1 nM [%] | BTK degradation (%) 10 nM [%] | BTK degradation (%) 100 nM [%]
Cc1cc(-c2ccnc(Nc3ccc(N4CC(CN5CCN(c6ccc7c(c6)C(=O)N(C6CCC(=O)NC6=O)C7=O)CC5)C4)cc3)n2)ccc1CNC(=O)N1CC(OC(C)C)C1 (stereo not drawn) [Example 112, N-(4-(2-((4-(3-((4-(2-(2,6-dioxopiperidin-3-yl)-1,3-dioxoisoindolin-5-yl)piperazin-1-yl)methyl)azetidin-1-yl)phenyl)amino)pyrimidin-4-yl)-2-methylbenzyl)-3-isopropoxyazetidine-1-carboxamide] | 44.0 | 97.0 | 100.0
Cc1cc(-c2ccnc(Nc3ccc(N4CC(CN5CCN(C(=O)c6cccc(NC7CCC(=O)NC7=O)c6)CC5)C4)cc3)n2)ccc1CNC(=O)N1CC(OC(C)C)C1 (stereo not drawn) [Example 113, N-(4-(2-((4-(3-((4-(3-((2,6-dioxopiperidin-3-yl)amino)benzoyl)piperazin-1-yl)methyl)azetidin-1-yl)phenyl)amino)pyrimidin-4-yl)-2-methylbenzyl)-3-isopropoxyazetidine-1-carboxamide] | 39.5 | 97.0 | 100.0
Cc1cc(-c2ccnc(Nc3ccc(N4CCC(CN5CCN(C(=O)c6cccc(NC7CCC(=O)NC7=O)c6)CC5)CC4)cc3)n2)ccc1CNC(=O)N1CC(OC(C)C)C1 (stereo not drawn) [Example 114, N-(4-(2-((4-(4-((4-(3-((2,6-dioxopiperidin-3-yl)amino)benzoyl)piperazin-1-yl)methyl)piperidin-1-yl)phenyl)amino)pyrimidin-4-yl)-2-methylbenzyl)-3-isopropoxyazetidine-1-carboxamide] | 59.0 | 99.5 | 99.5
Cc1cc(-c2ccnc(Nc3ccc(N4CCN(CC5CCN(Cc6cccc(NC7CCC(=O)NC7=O)c6)CC5)CC4)cc3)n2)ccc1CNC(=O)N1CC(OC(C)C)C1 (stereo not drawn) [Example 115, N-(4-(2-((4-(4-((1-(3-((2,6-dioxopiperidin-3-yl)amino)benzyl)piperidin-4-yl)methyl)piperazin-1-yl)phenyl)amino)pyrimidin-4-yl)-2-methylbenzyl)-3-isopropoxyazetidine-1-carboxamide] | 48.0 | 97.0 | 100.0
Cc1cc(-c2ccnc(Nc3ccc(N4CCC(C(=O)N5CCC(c6cccc(NC7CCC(=O)NC7=O)c6)CC5)CC4)cc3)n2)ccc1CNC(=O)N1CC(OC(C)C)C1 (stereo not drawn) [Example 116, N-(4-(2-((4-(4-(4-(3-((2,6-dioxopiperidin-3-yl)amino)phenyl)piperidine-1-carbonyl)piperidin-1-yl)phenyl)amino)pyrimidin-4-yl)-2-methylbenzyl)-3-isopropoxyazetidine-1-carboxamide] | 1.0 | 56.0 | 96.5
Cc1cc(-c2ccnc(Nc3ccc(N4CCC(C(=O)N5CCC(c6ccc(NC7CCC(=O)NC7=O)cc6)CC5)CC4)cc3)n2)ccc1CNC(=O)N1CC(OC(C)C)C1 (stereo not drawn) [Example 117, N-(4-(2-((4-(4-(4-(4-((2,6-dioxopiperidin-3-yl)amino)phenyl)piperidine-1-carbonyl)piperidin-1-yl)phenyl)amino)pyrimidin-4-yl)-2-methylbenzyl)-3-isopropoxyazetidine-1-carboxamide] | 24.0 | 87.5 | 99.0
Cc1cc(-c2ccnc(Nc3ccc(N4CCC(C(=O)N5CCC(c6ccc(OC7CCC(=O)NC7=O)cc6)CC5)CC4)cc3)n2)ccc1CNC(=O)N1CC(OC(C)C)C1 (stereo not drawn) [Example 118, N-(4-(2-((4-(4-(4-(4-((2,6-dioxopiperidin-3-yl)oxy)phenyl)piperidine-1-carbonyl)piperidin-1-yl)phenyl)amino)pyrimidin-4-yl)-2-methylbenzyl)-3-isopropoxyazetidine-1-carboxamide] | 15.0 | 68.0 | 97.5
Cc1cc(-c2ccnc(Nc3ccc(N4CCC(CN5CCC(c6ccc(OC7CCC(=O)NC7=O)cc6)CC5)CC4)cc3)n2)ccc1CNC(=O)N1CC(OC(C)C)C1 (stereo not drawn) [Example 119, N-(4-(2-((4-(4-((4-(4-((2,6-dioxopiperidin-3-yl)oxy)phenyl)piperidin-1-yl)methyl)piperidin-1-yl)phenyl)amino)pyrimidin-4-yl)-2-methylbenzyl)-3-isopropoxyazetidine-1-carboxamide] | 41.5 | 91.0 | 99.5
Cc1cc(-c2ccnc(Nc3ccc(N4CCC(CN5CCN(c6cccc(NC7CCC(=O)NC7=O)c6)CC5)CC4)cc3)n2)ccc1CNC(=O)N1CC(OC(C)C)C1 (stereo not drawn) [Example 120, N-(4-(2-((4-(4-((4-(3-((2,6-dioxopiperidin-3-yl)amino)phenyl)piperazin-1-yl)methyl)piperidin-1-yl)phenyl)amino)pyrimidin-4-yl)-2-methylbenzyl)-3-isopropoxyazetidine-1-carboxamide] | 18.5 | 91.5 | 99.5
Cc1cc(-c2ccnc(Nc3ccc(N4CCC(CN5CCN(c6ccc(NC7CCC(=O)NC7=O)cc6)CC5)CC4)cc3)n2)ccc1CNC(=O)N1CC(OC(C)C)C1 (stereo not drawn) [Example 121, N-(4-(2-((4-(4-((4-(4-((2,6-dioxopiperidin-3-yl)amino)phenyl)piperazin-1-yl)methyl)piperidin-1-yl)phenyl)amino)pyrimidin-4-yl)-2-methylbenzyl)-3-isopropoxyazetidine-1-carboxamide] | 43.0 | 97.0 | 100.0
Cc1cc(-c2ccnc(Nc3ccc(N4CCC(CN5CCC(c6cccc(NC7CCC(=O)NC7=O)c6)CC5)CC4)cc3)n2)ccc1CNC(=O)N1CC(OC(C)C)C1 (stereo not drawn) [Example 122, N-(4-(2-((4-(4-((4-(3-((2,6-dioxopiperidin-3-yl)amino)phenyl)piperidin-1-yl)methyl)piperidin-1-yl)phenyl)amino)pyrimidin-4-yl)-2-methylbenzyl)-3-isopropoxyazetidine-1-carboxamide] | −9.0 | 63.0 | 98.5
Cc1cc(-c2ccnc(Nc3ccc(N4CCC(CN5CCC(c6ccc(NC7CCC(=O)NC7=O)cc6)CC5)CC4)cc3)n2)ccc1CNC(=O)N1CC(OC(C)C)C1 (stereo not drawn) [Example 123, N-(4-(2-((4-(4-((4-(4-((2,6-dioxopiperidin-3-yl)amino)phenyl)piperidin-1-yl)methyl)piperidin-1-yl)phenyl)amino)pyrimidin-4-yl)-2-methylbenzyl)-3-isopropoxyazetidine-1-carboxamide] | 17.5 | 92.5 | 100.0
Cc1cc(-c2ccnc(Nc3ccc(N4CCC(CN5CCC(c6ccc(OC7CCC(=O)NC7=O)cn6)CC5)CC4)cc3)n2)ccc1CNC(=O)N1CC(OC(C)C)C1 (stereo not drawn) [Example 124, N-(4-(2-((4-(4-((4-(5-((2,6-dioxopiperidin-3-yl)oxy)pyridin-2-yl)piperidin-1-yl)methyl)piperidin-1-yl)phenyl)amino)pyrimidin-4-yl)-2-methylbenzyl)-3-isopropoxyazetidine-1-carboxamide] | −1.3 | 63.7 | 97.7
Cc1cc(-c2ccnc(Nc3ccc(N4CCC(CN5CCN(c6ccc(OC7CCC(=O)NC7=O)cn6)CC5)CC4)cc3)n2)ccc1CNC(=O)N1CC(OC(C)C)C1 (stereo not drawn) [Example 125, N-(4-(2-((4-(4-((4-(5-((2,6-dioxopiperidin-3-yl)oxy)pyridin-2-yl)piperazin-1-yl)methyl)piperidin-1-yl)phenyl)amino)pyrimidin-4-yl)-2-methylbenzyl)-3-isopropoxyazetidine-1-carboxamide] | 14.7 | 85.0 | 99.3
Cc1cc(-c2ccnc(Nc3ccc(N4CCC(CN5CCC(c6ccc(NC7CCC(=O)NC7=O)cn6)CC5)CC4)cc3)n2)ccc1CNC(=O)N1CC(OC(C)C)C1 (stereo not drawn) [Example 126, N-(4-(2-((4-(4-((4-(5-((2,6-dioxopiperidin-3-yl)amino)pyridin-2-yl)piperidin-1-yl)methyl)piperidin-1-yl)phenyl)amino)pyrimidin-4-yl)-2-methylbenzyl)-3-isopropoxyazetidine-1-carboxamide] | 39.7 | 95.7 | 100.0
Cc1cc(-c2ccnc(Nc3ccc(N4CCC(CN5CCN(c6ccc(NC7CCC(=O)NC7=O)cn6)CC5)CC4)cc3)n2)ccc1CNC(=O)N1CC(OC(C)C)C1 (stereo not drawn) [Example 127, N-(4-(2-((4-(4-((4-(5-((2,6-dioxopiperidin-3-yl)amino)pyridin-2-yl)piperazin-1-yl)methyl)piperidin-1-yl)phenyl)amino)pyrimidin-4-yl)-2-methylbenzyl)-3-isopropoxyazetidine-1-carboxamide] | 43.3 | 94.0 | 99.3
